Tested on: 292921-168-R-J2-PDC complex spheroid viability
Assay: Anticancer human tumor 292921-168-R-J2-PDC patient-derived pancreatic carcinoma cell line growth inhibition
Settings: for IC50: curve of first compound; for viability, T/C: stronger effect = lower value
How it was run: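 Complex spheroids of tumor cells with HUVEC and human MSCs, exposed to iadademstat combined with other agents. Each agent tested in half-log steps from near clinical Cmax (else 10 microM top), DMSO ≤0.25%.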

[1] = second compound 0.1 µM, first compound 0.00949 µM
[2] = second compound 0.1 µM, first compound 0.03 µM
[3] = second compound 0.1 µM, first compound 0.0949 µM
[4] = second compound 0.1 µM, first compound 0.3 µM
[5] = second compound 0.316 µM, first compound 0.00949 µM
[6] = second compound 0.316 µM, first compound 0.03 µM
[7] = second compound 0.316 µM, first compound 0.0949 µM
[8] = second compound 0.316 µM, first compound 0.3 µM
[9] = second compound 1 µM, first compound 0.00949 µM
[10] = second compound 1 µM, first compound 0.03 µM
[11] = second compound 1 µM, first compound 0.0949 µM
[12] = second compound 1 µM, first compound 0.3 µM
[13] = second compound 3.16 µM, first compound 0.00949 µM
[14] = second compound 3.16 µM, first compound 0.03 µM
[15] = second compound 3.16 µM, first compound 0.0949 µM
[16] = second compound 3.16 µM, first compound 0.3 µM
[17] = second compound 10 µM, first compound 0.00949 µM
[18] = second compound 10 µM, first compound 0.03 µM
[19] = second compound 10 µM, first compound 0.0949 µM
[20] = second compound 10 µM, first compound 0.3 µM
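Note: seven day compound exposure before luminescent viability read.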
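Throughout, for viability, T/C: 100% = DMSO vehicle control wells.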

**Q.** For `CCN(c1cc(-c2ccc(CN3CCOCC3)cc2)cc(C(=O)NCc2c(C)cc(C)[nH]c2=O)c1C)C1CCOCC1` + NC1CCC(NC2CC2c2ccccc2)CC1, which IC50 (second compound 0.1 µM) is on record?
**A.** 953 nM

**Q.** And the IC50 (second compound 0.316 µM)?
**A.** 694 nM

**Q.** What about the IC50 (second compound 1 µM) of the same compound?
**A.** 647 nM

**Q.** And the IC50 (second compound 3.16 µM)?
**A.** 649 nM

**Q.** What about the IC50 (second compound 10 µM) of the same compound?
**A.** 453 nM

**Q.** And the viability, T/C [1]?
**A.** 67.3%

**Q.** And the viability, T/C [2]?
**A.** 69.7%

**Q.** And the viability, T/C [3]?
**A.** 76.6%

**Q.** What about the viability, T/C [4] of the same compound?
**A.** 63.5%

**Q.** What about the viability, T/C (second compound 0.1 µM, first compound 0.949 µM) of the same compound?
**A.** 50.6%

**Q.** What about the viability, T/C (second compound 0.1 µM, first compound 3 µM) of the same compound?
**A.** 21.3%

**Q.** What about the viability, T/C [5] of the same compound?
**A.** 77.2%

**Q.** What about the viability, T/C [6] of the same compound?
**A.** 71.7%

**Q.** What about the viability, T/C [7] of the same compound?
**A.** 66.6%

**Q.** And the viability, T/C [8]?
**A.** 66.8%

**Q.** And the viability, T/C (second compound 0.316 µM, first compound 0.949 µM)?
**A.** 44%

**Q.** What about the viability, T/C (second compound 0.316 µM, first compound 3 µM) of the same compound?
**A.** 18.4%

**Q.** And the viability, T/C [9]?
**A.** 60%

**Q.** What about the viability, T/C [10] of the same compound?
**A.** 61.8%

**Q.** And the viability, T/C [11]?
**A.** 67.6%

**Q.** And the viability, T/C [12]?
**A.** 61%

**Q.** What about the viability, T/C (second compound 1 µM, first compound 0.949 µM) of the same compound?
**A.** 44.3%

**Q.** What about the viability, T/C (second compound 1 µM, first compound 3 µM) of the same compound?
**A.** 17.7%

**Q.** What about the viability, T/C [13] of the same compound?
**A.** 59.8%

**Q.** What about the viability, T/C [14] of the same compound?
**A.** 68.4%

**Q.** And the viability, T/C [15]?
**A.** 68.1%

**Q.** And the viability, T/C [16]?
**A.** 57.6%

**Q.** What about the viability, T/C (second compound 3.16 µM, first compound 0.949 µM) of the same compound?
**A.** 45.6%

**Q.** What about the viability, T/C (second compound 3.16 µM, first compound 3 µM) of the same compound?
**A.** 18.5%

**Q.** What about the viability, T/C [17] of the same compound?
**A.** 62.8%

**Q.** What about the viability, T/C [18] of the same compound?
**A.** 64.3%

**Q.** What about the viability, T/C [19] of the same compound?
**A.** 63.4%

**Q.** And the viability, T/C [20]?
**A.** 56.8%

**Q.** What about the viability, T/C (second compound 10 µM, first compound 0.949 µM) of the same compound?
**A.** 37.4%

**Q.** What about the viability, T/C (second compound 10 µM, first compound 3 µM) of the same compound?
**A.** 15.8%

**Q.** With `Nc1ncn(C2CC(O)C(CO)S2)c(=O)n1` (stereo not given) + NC1CCC(NC2CC2c2ccccc2)CC1 as the compound, how does the IC50 (second compound 0.1 µM) read?
**A.** 43.8 nM

**Q.** What about the IC50 (second compound 0.316 µM) of the same compound?
**A.** 40 nM

**Q.** What about the IC50 (second compound 1 µM) of the same compound?
**A.** 37.2 nM

**Q.** And the IC50 (second compound 3.16 µM)?
**A.** 34.6 nM

**Q.** And the IC50 (second compound 10 µM)?
**A.** 30.7 nM

**Q.** And the viability, T/C (second compound 0.1 µM, first compound 0.000949 µM)?
**A.** 68.9%

**Q.** And the viability, T/C (second compound 0.1 µM, first compound 0.003 µM)?
**A.** 62%

**Q.** What about the viability, T/C [1] of the same compound?
**A.** 63.2%

**Q.** And the viability, T/C [2]?
**A.** 57.1%

**Q.** And the viability, T/C [3]?
**A.** 36.8%

**Q.** What about the viability, T/C [4] of the same compound?
**A.** 10.9%

**Q.** And the viability, T/C (second compound 0.316 µM, first compound 0.000949 µM)?
**A.** 66.8%

**Q.** What about the viability, T/C (second compound 0.316 µM, first compound 0.003 µM) of the same compound?
**A.** 64.3%

**Q.** And the viability, T/C [5]?
**A.** 59.1%

**Q.** What about the viability, T/C [6] of the same compound?
**A.** 57.2%

**Q.** What about the viability, T/C [7] of the same compound?
**A.** 33.2%

**Q.** And the viability, T/C [8]?
**A.** 11.2%

**Q.** What about the viability, T/C (second compound 1 µM, first compound 0.000949 µM) of the same compound?
**A.** 52.2%

**Q.** What about the viability, T/C (second compound 1 µM, first compound 0.003 µM) of the same compound?
**A.** 62.7%

**Q.** What about the viability, T/C [9] of the same compound?
**A.** 55.2%

**Q.** And the viability, T/C [10]?
**A.** 53.9%

**Q.** And the viability, T/C [11]?
**A.** 33.6%

**Q.** What about the viability, T/C [12] of the same compound?
**A.** 10.3%

**Q.** What about the viability, T/C (second compound 3.16 µM, first compound 0.000949 µM) of the same compound?
**A.** 55.1%

**Q.** And the viability, T/C (second compound 3.16 µM, first compound 0.003 µM)?
**A.** 61.9%

**Q.** And the viability, T/C [13]?
**A.** 58.6%

**Q.** What about the viability, T/C [14] of the same compound?
**A.** 52.9%

**Q.** What about the viability, T/C [15] of the same compound?
**A.** 28%

**Q.** What about the viability, T/C [16] of the same compound?
**A.** 11%

**Q.** And the viability, T/C (second compound 10 µM, first compound 0.000949 µM)?
**A.** 56.3%

**Q.** What about the viability, T/C (second compound 10 µM, first compound 0.003 µM) of the same compound?
**A.** 61.2%

**Q.** And the viability, T/C [17]?
**A.** 59.6%

**Q.** And the viability, T/C [18]?
**A.** 49.6%

**Q.** And the viability, T/C [19]?
**A.** 28.2%

**Q.** What about the viability, T/C [20] of the same compound?
**A.** 11.5%

**Q.** How did the IC50 (second compound 0.1 µM) turn out when `O=C(C=Cn1cnc(-c2cc(C(F)(F)F)cc(C(F)(F)F)c2)n1)NNc1cnccn1` + NC1CCC(NC2CC2c2ccccc2)CC1 was run?
**A.** 5.43 nM

**Q.** And the IC50 (second compound 0.316 µM)?
**A.** 8.67 nM

**Q.** What about the IC50 (second compound 1 µM) of the same compound?
**A.** 10.6 nM

**Q.** What about the IC50 (second compound 3.16 µM) of the same compound?
**A.** 6.77 nM

**Q.** And the IC50 (second compound 10 µM)?
**A.** 5.92 nM

**Q.** And the viability, T/C (second compound 0.1 µM, first compound 0.00316 µM)?
**A.** 52.7%

**Q.** What about the viability, T/C (second compound 0.1 µM, first compound 0.01 µM) of the same compound?
**A.** 47.4%

**Q.** And the viability, T/C (second compound 0.1 µM, first compound 0.0316 µM)?
**A.** 25.9%

**Q.** What about the viability, T/C (second compound 0.1 µM, first compound 0.1 µM) of the same compound?
**A.** 13.2%

**Q.** And the viability, T/C (second compound 0.1 µM, first compound 0.316 µM)?
**A.** 6.69%

**Q.** What about the viability, T/C (second compound 0.1 µM, first compound 1 µM) of the same compound?
**A.** 6.34%

**Q.** And the viability, T/C (second compound 0.316 µM, first compound 0.00316 µM)?
**A.** 54.7%

**Q.** And the viability, T/C (second compound 0.316 µM, first compound 0.01 µM)?
**A.** 50.4%

**Q.** What about the viability, T/C (second compound 0.316 µM, first compound 0.0316 µM) of the same compound?
**A.** 27%

**Q.** And the viability, T/C (second compound 0.316 µM, first compound 0.1 µM)?
**A.** 13.6%

**Q.** And the viability, T/C (second compound 0.316 µM, first compound 0.316 µM)?
**A.** 8.09%

**Q.** What about the viability, T/C (second compound 0.316 µM, first compound 1 µM) of the same compound?
**A.** 7.2%

**Q.** And the viability, T/C (second compound 1 µM, first compound 0.00316 µM)?
**A.** 56.7%

**Q.** What about the viability, T/C (second compound 1 µM, first compound 0.01 µM) of the same compound?
**A.** 52.1%

**Q.** What about the viability, T/C (second compound 1 µM, first compound 0.0316 µM) of the same compound?
**A.** 29%

**Q.** And the viability, T/C (second compound 1 µM, first compound 0.1 µM)?
**A.** 13.8%

**Q.** And the viability, T/C (second compound 1 µM, first compound 0.316 µM)?
**A.** 9.01%

**Q.** And the viability, T/C (second compound 1 µM, first compound 1 µM)?
**A.** 7.09%

**Q.** And the viability, T/C (second compound 3.16 µM, first compound 0.00316 µM)?
**A.** 53%

**Q.** And the viability, T/C (second compound 3.16 µM, first compound 0.01 µM)?
**A.** 48.5%

**Q.** And the viability, T/C (second compound 3.16 µM, first compound 0.0316 µM)?
**A.** 29.9%

**Q.** What about the viability, T/C (second compound 3.16 µM, first compound 0.1 µM) of the same compound?
**A.** 12.9%

**Q.** What about the viability, T/C (second compound 3.16 µM, first compound 0.316 µM) of the same compound?
**A.** 8.57%

**Q.** What about the viability, T/C (second compound 3.16 µM, first compound 1 µM) of the same compound?
**A.** 8.41%

**Q.** And the viability, T/C (second compound 10 µM, first compound 0.00316 µM)?
**A.** 53.2%

**Q.** And the viability, T/C (second compound 10 µM, first compound 0.01 µM)?
**A.** 47.8%

**Q.** And the viability, T/C (second compound 10 µM, first compound 0.0316 µM)?
**A.** 30.2%

**Q.** And the viability, T/C (second compound 10 µM, first compound 0.1 µM)?
**A.** 16.3%

**Q.** What about the viability, T/C (second compound 10 µM, first compound 0.316 µM) of the same compound?
**A.** 9.15%

**Q.** What about the viability, T/C (second compound 10 µM, first compound 1 µM) of the same compound?
**A.** 8.4%
